Assay results: patent US20140135319A1, “6-SUBSTITUTED IMIDAZOPYRAZINES FOR USE AS MPS-1 AND TKK INHIBITORS IN THE TREATMENT OF HYPERPROLIFERATIVE DISORDERS” (BAYER INTELLECTUAL PROPERTY GMBH, priority 2010, published 2014)

These molecules were tested against T1, human kinase Mps-1 (Homo sapiens, UniProt P33981) (assay: Mps-1 kinase assay (TR-FRET)). Details: GST-tagged human full length recombinant Mps-1; 10 μM ATP; 1 μM peptide substrate; 60 min at 22° C.
T1 construct: N-terminally GST-tagged human full length recombinant Mps-1 kinase; GST (N); purchased Invitrogen, Karslruhe, Germany PV4071
T1 sequence (P33981 1-857): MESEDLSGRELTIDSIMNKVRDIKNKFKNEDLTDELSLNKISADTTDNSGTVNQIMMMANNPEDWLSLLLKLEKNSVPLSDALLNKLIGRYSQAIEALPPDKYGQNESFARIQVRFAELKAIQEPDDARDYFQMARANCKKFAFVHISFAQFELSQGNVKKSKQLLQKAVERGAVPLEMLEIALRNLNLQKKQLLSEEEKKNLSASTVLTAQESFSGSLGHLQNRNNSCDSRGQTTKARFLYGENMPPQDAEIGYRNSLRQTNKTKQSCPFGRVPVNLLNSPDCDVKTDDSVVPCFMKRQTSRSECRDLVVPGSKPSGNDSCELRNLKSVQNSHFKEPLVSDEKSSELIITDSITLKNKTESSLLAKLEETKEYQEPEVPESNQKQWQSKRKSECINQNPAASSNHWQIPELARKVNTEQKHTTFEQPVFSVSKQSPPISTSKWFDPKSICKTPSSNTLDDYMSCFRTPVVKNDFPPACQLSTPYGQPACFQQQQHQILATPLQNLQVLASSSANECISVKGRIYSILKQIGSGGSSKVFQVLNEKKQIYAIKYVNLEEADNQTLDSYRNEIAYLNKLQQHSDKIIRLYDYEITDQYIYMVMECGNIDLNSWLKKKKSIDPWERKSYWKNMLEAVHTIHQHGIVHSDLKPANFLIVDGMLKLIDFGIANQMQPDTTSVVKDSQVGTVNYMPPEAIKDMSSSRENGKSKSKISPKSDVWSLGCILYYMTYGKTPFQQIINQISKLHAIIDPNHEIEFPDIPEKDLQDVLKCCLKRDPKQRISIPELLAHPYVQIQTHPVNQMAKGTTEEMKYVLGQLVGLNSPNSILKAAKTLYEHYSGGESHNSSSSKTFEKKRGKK
Type: biochemical
Procedure, shortened: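 TR-FRET read-out: after 1 h binding at 22° C, Eu-labelled anti-phospho-Ser/Thr antibody transfers to SA-XLent on the phosphorylated biotinylated peptide. The enzyme is GST-tagged full-length human Mps-1, typically about 1 nM final, in the linear range.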

SMILES	IC50 [nM]
CC(C)CNc1nc(CCCN(C)C)cn2c(-c3ccc(C(=O)NC4CC4)cc3)cnc12 [Example 7-2, N-cyclopropyl-4-{6-[3-(dimethylamino)propyl]-8-[(2-methylpropyl)amino]imidazo[1,2-a]pyrazin-3-yl}benzamide]	42.2
Cn1nccc1-c1cn2c(-c3ccc(C(=O)NC4CC4)cc3)cnc2c(NCC(C)(C)O)n1 [Example 1-97, N-cyclopropyl-4-{8-[(2-hydroxy-2-methylpropyl)amino]-6-(1-methyl-1H-pyrazol-5-yl)imidazo[1,2-a]pyrazin-3-yl}benzamide]	17.8
Cc1cc(-c2cnc3c(NCCC4CCN(C)CC4)nc(C4=CCOCC4)cn23)ccc1C(=O)NC1CC1 [Example 6-14, N-cyclopropyl-4-[6-(3,6-dihydro-2H-pyran-4-yl)-8-{[2-(1-methyl-piperidin-4-yl)ethyl]amino}imidazo[1,2-a]pyrazin-3-yl]-2-methylbenzamide]	293
Cc1cc(-c2cnc3c(NCC4CC(=O)N(C)C4)nc(C4=CCOCC4)cn23)ccc1C(=O)NC1CC1 (stereo not shown) [Example 6-15, N-cyclopropyl-4-[6-(3,6-dihydro-2H-pyran-4-yl)-8-{[(1-methyl-5-oxopyrrolidin-3-yl)methyl]amino}imidazo[1,2-a]pyrazin-3-yl]-2-methylbenzamide]	44.8
CC(C)(O)CNc1nc(-c2ccoc2)cn2c(-c3ccc(C(=O)NC4CC4)c(Cl)c3)cnc12 [Example 1-41, 2-chloro-N-cyclopropyl-4-{6-(furan-3-yl)-8-[(2-hydroxy-2-methylpropyl)amino]imidazo[1,2-a]pyrazin-3-yl}benzamide]	55.3
Cc1cc(-c2cnc3c(NCC4CNC(=O)C4)nc(C4=CCOCC4)cn23)ccc1C(=O)NC1CC1 (stereo not shown) [Example 6-13, N-cyclopropyl-4-[6-(3,6-dihydro-2H-pyran-4-yl)-8-{[(5-oxopyrrolidin-3-yl)methyl]amino}imidazo [1,2-a]pyrazin-3-yl]-2-methylbenzamide]	29.9
O=C(NC1CC1)c1ccc(-c2cnc3c(NCC4CCCO4)nc(C4=CCOCC4)cn23)cc1Cl (stereo not shown) [Example 1-45, 2-chloro-N-cyclopropyl-4-{6-(3,6-dihydro-2H-pyran-4-yl)-8-[(tetrahydro-furan-2-ylmethyl)amino]imidazo[1,2-a]pyrazin-3-yl}benzamide]	105
CC(C)CNc1nc(-c2cnc3ccccc3c2)cn2c(-c3ccc(C(=O)NC4CC4)cc3)cnc12 [Example 1-2, N-cyclopropyl-4-{8-[(2-methylpropyl)amino]-6-(quinolin-3-yl)imidazo [1,2-a]pyrazin-3-yl} benzamide]	43.8
CC(C)CNc1nc(C#N)cn2c(-c3ccc(C(=O)NC4CC4)cc3)cnc12 [Example 5-1, 4-{6-cyano-8-[(2-methylpropyl)amino]imidazo[1,2-a]pyrazin-3-yl}-N-cyclopropyl benzamide]	55.1
Cn1nccc1-c1cn2c(-c3ccc(C(=O)NC4CC4)c(Cl)c3)cnc2c(NCCCN)n1 [Example 1-98, 4-{8-[(3-Aminopropyl)amino]-6-(1-methyl-1H-pyrazol-5-yl)imidazo[1,2-a]pyrazin-3-yl}-2-chloro-N-cyclopropylbenzamide]	1340
COc1cc(C(=O)NC2CC2)ccc1-c1cnc2c(NCCCN)nc(-c3ccncc3)cn12 [Example 1-100, 4-{8-[(3-Aminopropyl)amino]-6-(pyridin-4-yl)imidazo [1,2-a]pyrazin-3-yl}-N-cyclopropyl-3-methoxy-benzamide]	309
Cn1nccc1CNc1nc(-c2ccn[nH]2)cn2c(-c3ccc(C(=O)NC4CC4)c(Cl)c3)cnc12 [Example 1-48, 2-chloro-N-cyclopropyl-4-[8-{[(1-methyl-1H-pyrazol-5-yl)methyl]amino}-6-(1H-pyrazol-5-yl)imidazo[1,2-a]pyrazin-3-yl]benzamide]	42.3

Stronger by IC50, values ahead:

IC50 [nM]	SMILES
3.5	O=C(NC1CC1)c1ccc(-c2cnc3c(NCc4ccco4)nc(-c4ccncc4)cn23)cc1 [Example 3-20, N-cyclopropyl-4-{8-[(furan-2-ylmethyl)amino]-6-(pyridin-4-yl)imidazo [1,2-a]pyrazin-3-yl} benzamide]
3.8	Cn1nccc1CNc1nc(-c2cccc(CC(N)=O)c2)cn2c(-c3ccc(C(=O)NC4CC4)cc3)cnc12 [Example 1-92, 4-(6-[3-(2-Amino-2-oxo-ethyl)phenyl]-8-{[(1-methyl-1H-pyrazol-5-yl)methyl]amino}imidazo[1,2-a]pyrazin-3-yl)-N-cyclopropyl benzamide]
8.2	O=C(NC1CC1)c1ccc(-c2cnc3c(NCCc4nccs4)nc(-c4ccncc4)cn23)cc1 [Example 3-34, N-cyclopropyl-4-[6-(pyridin-4-yl)-8-{[2-(1,3-thiazol-2-yl)ethyl]amino}imidazo[1,2-a]pyrazin-3-yl]benzamide]
3.7	CC(C)CNc1nc(-c2ccncc2)cn2c(-c3ccc(C(=O)NC4CC4)c(F)c3)cnc12 [Example 1-49, N-cyclopropyl-2-fluoro-4-{8-[(2-methylpropyl)amino]-6-(pyridin-4-yl)imidazo[1,2-a]pyrazin-3-yl}benzamide]
1.2	Cc1cc(-c2cnc3c(NCCC(F)(F)F)nc(CNc4ccccc4)cn23)ccc1C(=O)NC1CC1 [Example 11-2, N-cyclopropyl-2-methyl-4-{6-[(phenylamino)methyl]-8-[(3,3,3-trifluoropropyl)amino]imidazo[1,2-a]pyrazin-3-yl}benzamide]
2.9	Cc1ccc(-c2cn3c(-c4ccc(C(=O)NC5CC5)cc4)cnc3c(NCC(C)C)n2)cn1 [Example 1-20, N-cyclopropyl-4-{8-[(2-methylpropyl)amino]-6-(6-methylpyridin-3-yl)imidazo[1,2-a]pyrazin-3-yl}benzamide]
2.8	Cc1cc(-c2cnc3c(NCCC(F)(F)F)nc(C4=CCSCC4)cn23)ccc1C(=O)NC1CC1 [Example 1-79, N-cyclopropyl-4-{6-(3,6-dihydro-2H-thiopyran-4-yl)-8-[(3,3,3-trifluoro-propyl)amino]imidazo [1,2-a]pyrazin-3-yl}-2-methylbenzamide]
6.5	CNC(=O)CCCCc1cn2c(-c3ccc(C(=O)NC4CC4)cc3)cnc2c(NCC(C)C)n1 [Example 7-5, N-cyclopropyl-4-{6-[5-(methylamino)-5-oxopentyl]-8-[(2-methylpropyl)amino]imidazo[1,2-a]pyrazin-3-yl} benzamide]
< 1	Cc1cc(-c2cnc3c(NCCC(F)(F)F)nc(Sc4cccc(F)c4)cn23)ccc1C(=O)NC1CC1 [Example 15-3, N-cyclopropyl-4-{6-[(3-fluorophenyl)sulfanyl]-8-[(3,3,3-trifluoropropyl)amino]imidazo[1,2-a]pyrazin-3-yl}-2-methylbenzamide]
1.9	O=C(NC1CC1)c1ccc(-c2cnc3c(NCc4ccc(F)cc4)nc(-c4ccncc4)cn23)cc1 [Example 3-10, N-cyclopropyl-4-{8-[(4-fluorobenzyl)amino]-6-(pyrdin-4-yl)imidazo [1,2-a]pyrazin-3-yl} benzamide]
6.8	CC(C)CNc1nc(-c2ccc3c(ccn3C)c2)cn2c(-c3ccc(C(=O)NC4CC4)cc3)cnc12 [Example 1-6, N-cyclopropyl-4-{6-(1-methyl-1H-indol-5-yl)-8-[(2-methylpropyl)amino]imidazo[1,2-a]pyrazin-3-yl}benzamide]
1.4	CC(C)CNc1nc(C2=CCOCC2)cn2c(-c3ccc(C(=O)NC4CC4)cc3)cnc12 [Example 1-29, N-cyclopropyl-4-{6-(3,6-dihydro-2H-pyran-4-yl)-8-[(2-methylpropyl)amino]imidazo[1,2-a]pyrazin-3-yl}benzamide]
8	CC(C)CNc1nc(-c2cccs2)cn2c(-c3ccc(C(=O)NC4CC4)cc3)cnc12 [Example 1-9, N-cyclopropyl-4-{8-[(2-methylpropyl)amino]-6-(thiophen-2-yl)imidazo [1,2-a]pyrazin-3-yl} benzamide]
8.3	CC(C)CNc1nc(-c2ccn[nH]2)cn2c(-c3ccc(C(=O)NC4CC4)c(F)c3)cnc12 [Example 1-51, N-cyclopropyl-2-fluoro-4-{8-[(2-methylpropyl)amino]-6-(1H-pyrazol-5-yl)imidazo[1,2-a]pyrazin-3-yl}benzamide]
7.2	CC(C)CNc1nc(CCCO)cn2c(-c3ccc(C(=O)NC4CC4)cc3)cnc12 [Example 7-3, N-cyclopropyl-4-{6-(3-hydroxypropyl)-8-[(2-methylpropyl)amino]imidazo[1,2-a]pyrazin-3-yl}benzamide]
7.2	Cc1cc(-c2cnc3c(NC[C@H](O)C(F)(F)F)nc(-c4ccnn4C)cn23)ccc1C(=O)NC1CC1 [Example 3-38, N-cyclopropyl-2-methyl-4-{6-(1-methyl-1H-pyrazol-5-yl)-8-[(3,3,3-trifluoro-2-hydroxypropyl)amino]imidazo[1,2-a]pyrazin-3-yl}benzamide]
